Laboratory results from ChEMBL document CHEMBL1152524, “Preparation of C-23 esterified silybin derivatives and evaluation of their lipid peroxidation inhibitory and DNA protective properties” (Bioorg Med Chem, 2009).
Activity calls are given as the source filed them. The calls are words filed in the database; no cut-off is given here.

Assays:
[1] = Antioxidant activity assessed as ferrous ion chelating activity after 30 mins by spectrophotometry; type: functional
[2] = test system: Radical scavenging activity; experiment: Antioxidant activity assessed as DPPH radical scavenging activity at 100 ug/mL after 30 mins; type: functional
[3] = Antioxidant activity assessed as superoxide anion scavenging activity at 100 ug/mL after 5 mins by NBT reduction assay; type: functional
[4] = Antioxidant activity assessed as protection against H2O2-induced pcDNA3.1(+) scission at 100 ug/mL after 30 mins by […] staining-based gel electrophoresis; type: functional
[5] = test system: Liver; experiment: Inhibition of FeSO4-induced lipid peroxidation in Sprague-Dawley rat liver homogenate assessed as decrease in malondialdehyde level after 1 hr by TBA assay; type: functional, tissue-based
[6] = Antioxidant activity assessed as superoxide anion scavenging activity after 5 mins by NBT reduction assay; type: functional
[7] = test system: Radical scavenging activity; experiment: Antioxidant activity assessed as DPPH radical scavenging activity after 30 mins; type: functional
[8] = Antioxidant activity assessed as protection against H2O2-induced pcDNA3.1(+) scission after 30 mins by […] staining-based gel electrophoresis; type: functional

Row | Structure (SMILES) | EC50 [1] [µM] | Activity [2] [%] | Activity [3] | Activity [4] | IC50 [5] [µM] | EC50 [6] [µM] | EC50 [7] [µM] | Activity [5] | Activity [8]
1 | COc1cc(C2Oc3cc([C@H]4Oc5cc(O)cc(O)c5C(=O)[C@@H]4O)ccc3OC2COC(=O)c2cccc(Cl)c2)ccc1O (some centres not stated) | 106 | 5.6 | 7% | Active | 14.2 |  |  |  | 
2 | COc1cc(C2Oc3cc([C@H]4Oc5cc(O)cc(O)c5C(=O)[C@@H]4O)ccc3OC2COC(=O)c2cc(N)cc([N+](=O)[O-])c2)ccc1O (some centres not stated) | > 300 | 59.9 | 54.3% | inactive | 0.2 | 129 | 127 | Dose-dependent effect | 
3 | COc1cc(C2Oc3cc([C@H]4Oc5cc(O)cc(O)c5C(=O)[C@@H]4O)ccc3OC2COC(=O)c2ccc(OC)c(OC)c2)ccc1O (mixture of isomers) | 77 | 34.2 | 37.2% | Active | 16 |  |  |  | Dose-dependent effect
4 | COc1cc(C2Oc3cc([C@H]4Oc5cc(O)cc(O)c5C(=O)[C@@H]4O)ccc3OC2COC(=O)c2ccccc2)ccc1O (relative stereo) | 105 | 40.4 | inactive | Active | 12.7 |  |  |  | Dose-dependent effect
5 | COc1cc(C2Oc3cc([C@H]4Oc5cc(O)cc(O)c5C(=O)[C@@H]4O)ccc3OC2COC(=O)/C=C/c2ccc(Cl)cc2)ccc1O (relative stereo) | 87.9 | 18.4 | 9.1% | Active | 12 |  |  |  | Dose-dependent effect
6 | COc1cc(C2Oc3cc([C@H]4Oc5cc(O)cc(O)c5C(=O)[C@@H]4O)ccc3OC2COC(=O)c2ccc(N)cc2)ccc1O (relative stereo) | 128 | 16.4 | 43.3% | inactive | 14.3 |  |  |  | 
7 | COc1cc(C2Oc3cc([C@H]4Oc5cc(O)cc(O)c5C(=O)[C@@H]4O)ccc3OC2COC(=O)/C=C/c2ccc(Br)cc2)ccc1O (relative stereo) | 88.9 | 19.8 | 6.5% | Active | 16.3 |  |  |  | Dose-dependent effect
8 | COc1cc(C2Oc3cc([C@H]4Oc5cc(O)cc(O)c5C(=O)[C@@H]4O)ccc3OC2COC(=O)c2ccc3c(c2)OCO3)ccc1O (relative stereo) | 108 | 31.7 | 7.3% | inactive | 20.8 |  |  |  | 
9 | COc1cc(C2Oc3cc([C@H]4Oc5cc(O)cc(O)c5C(=O)[C@@H]4O)ccc3OC2COC(=O)/C=C/c2ccc(C)cc2)ccc1O (relative stereo) | 136 | 33.3 | 7.3% | Active | 14.7 |  |  |  | 
10 | COc1cc(C2Oc3cc([C@H]4Oc5cc(O)cc(O)c5C(=O)[C@@H]4O)ccc3OC2COC(=O)c2cc([N+](=O)[O-])cc([N+](=O)[O-])c2)ccc1O (relative stereo) | 205 | 22.1 | 32% | inactive | 14.6 |  |  |  | 
11 | COc1cc(C2Oc3cc([C@H]4Oc5cc(O)cc(O)c5C(=O)[C@@H]4O)ccc3OC2COC(=O)c2ccc([N+](=O)[O-])cc2)ccc1O (relative stereo) | > 300 | 38.6 | inactive | inactive | 12.6 |  |  |  | 
12 | COc1ccc(C(=O)OCC2Oc3ccc([C@H]4Oc5cc(O)cc(O)c5C(=O)[C@@H]4O)cc3OC2c2ccc(O)c(OC)c2)cc1 (relative stereo) | 73.3 | 37.1 | 6.5% | inactive | 21 |  |  |  | 
13 | COc1cc(C2Oc3cc([C@H]4Oc5cc(O)cc(O)c5C(=O)[C@@H]4O)ccc3OC2COC(=O)c2cc(OC)c(OC)c(OC)c2)ccc1O (relative stereo) | 94.8 | 52.6 | 36.1% | Active | 25.7 |  | 145 |  | Dose-dependent effect
14 | CCOC(=O)CC(=O)OCC1Oc2ccc([C@H]3Oc4cc(O)cc(O)c4C(=O)[C@@H]3O)cc2OC1c1ccc(O)c(OC)c1 (relative stereo) | 101 | 16.2 | 60.1% | Active | 33.4 | 113 |  |  | 
15 | O=C([O-])CN(CCN(CC(=O)[O-])CC(=O)O)CC(=O)O.[Na+].[Na+] [EDETATE DISODIUM ANHYDROUS] | 16.2 |  |  |  |  |  |  |  | 
16 | O=c1c(O)c(-c2ccc(O)c(O)c2)oc2cc(O)cc(O)c12 [QUERCETIN] | 236 | 96.8 | 93.8% |  | 1.8 | 31.8 | 5.5 | Dose-dependent effect | 
17 | COc1cc(C2Oc3cc([C@H]4Oc5cc(O)cc(O)c5C(=O)[C@@H]4O)ccc3OC2CO)ccc1O (some centres not stated) [SILIBININ] | 196 | 16.6 | 38.2% |  | 22.7 |  |  |  | 
